Reference: patent US8722649B2, “Alpha-chloro and alpha-bromo phosphonate analogs of lysophosphatidic acid and methods of making and using thereof” (University of Utah Research Foundation, priority 2007, dated 2014)
Read-outs that look alike come from different tables or passages of the source.

Legend:
human LPA4 = molecular target: T1, human LPA4 (Homo sapiens, UniProt Q99677); test: Ca2+ mobilization assay, LPA4 in CHO cells; format: cell-based; conditions: for EC50: CHO cells stably expressing LPA4, agonist mode; for inhibition at 30 µM: CHO, at 30 μM (400 nM LPA), read-out: LPA4 Inhibition; for LPA4 (Emax): Emax = (maximal efficacy of compound/maximal efficacy of LPA 18:1) × 100; for LPA4 ligand type: agonist/antagonist in words
T1 construct: expressed in transfected cells
Procedure: (§1) Receptor activation using Ca^2+ mobilization assay for diastereomers of 1 (also represented as 19b). The rat hepatoma (RH7777) cell lines individually expressing either LPA1, LPA2, LPA3 or LPA5 receptors and Chinese hamster ovary (CHO) cell line were analyzed to examine agonism and antagonism. […] CHO cells stably expressing either vector or LPA4 were kindly gifted from Dr. Shimizu (University of Tokyo, Tokyo, Japan).
Stable transformants of LPA4. CHO cells stably expressing either vector or LPA4 were plated on non-coated 96 well plates at a density of 4×10^4 cells/well and cultured overnight. The following day, cells were loaded with Fura-2 AM for 1 h in modified Krebs buffer containing 2% (v/v) pluronic acid and 2.5 mM probenecid.
(§2) After incubating the cells with Fura-2 AM, the cells were rinsed with Krebs buffer and changes in the intracellular Ca^2+ concentration were monitored by determining the ratio of emitted light intensities at 520 nm in response to excitation at 340 and 380 nm using FLEXstation II (Molecular Devices, Sunnyvale, Calif.). Each well was monitored for 80-120 sec. For testing agonist activity of the compounds, the test compounds were added automatically after 15 sec of baseline measurement. […] Each test was performed in quadruplicate. EC50, IC50, and Ki values were calculated by fitting a sigmoid function to data points with the nonlinear curve-fitting feature of KaleidaGraph (Synergy Software, Essex Junction, Vt.).
(§3) Receptor activation using Ca^2+ mobilization assay. The assay for mobilization of intracellular Ca^2+ was performed as described. Briefly, rat hepatoma RH7777 cells stably expressing human LPA1, LPA2, or LPA3, and CHO cells stably expressing LPA4, were loaded with Fura-2 AM (Molecular Probes). Using a FLEXStation (Molecular Devices, Sunnyvale, Calif.), changes in intracellular Ca^2+ concentration were monitored. Ligand-induced changes in fluorescence were monitored for 80-120 seconds. Ca^2+ transients were quantified automatically by calculating the difference between maximum and baseline ratio values for each sample. […] Each test was performed in quadruplicate. EC50, IC50, and Ki values were calculated as described. The ligand properties of the compounds were evaluated using Ca^2+ mobilization assay for assessing the activation/inhibition of LPA1, LPA2, and LPA3 expressed in RH7777 cells and LPA4 expressed in CHO cells.

human LPA1 = molecular target: T2, human LPA1 (Homo sapiens, UniProt Q92633); test: Ca2+ mobilization assay, LPA1; format: cell-based; conditions: for EC50: RH7777 cells stably expressing LPA1, agonist mode; for LPA1 (Emax): Emax = (maximal efficacy of compound/maximal efficacy of LPA 18:1) × 100; for LPA1 ligand type: agonist/antagonist in words
T2 construct: expressed in transfected cells
Procedure: as §1
(§4) Stable transformants of LPA1/2/3 receptors. RH7777 cells stably expressing each receptor were plated onto poly-L-lysine (PLL) (0.1 mg/mL)-coated black-wall clear-bottom 96-well plates (Corning Incorporated Life Sciences, Acton, Mass.) at a density of 5×10^4 cells/well and cultured overnight. The following day, the culture medium was replaced with modified Krebs buffer (120 mM NaCl, 5 mM KCl, 0.62 mM MgSO4, 1.8 mM CaCl2, 10 mM HEPES, 6 mM glucose, pH 7.4), and the cells were serum starved for 6 h. Subsequently, cells were loaded with Fura-2 AM (Invitrogen, Carlsbad, Calif.) for 35 min in modified Krebs buffer containing 2% (v/v) pluronic acid.
After incubating the cells with Fura-2 AM, the cells were rinsed with Krebs buffer and changes in the intracellular Ca^2+ concentration were monitored by determining the ratio of emitted light intensities at 520 nm in response to excitation at 340 and 380 nm using FLEXstation II (Molecular Devices, Sunnyvale, Calif.). Each well was monitored for 80-120 sec. For testing agonist activity of the compounds, the test compounds were added automatically after 15 sec of baseline measurement. To determine antagonist properties, varying concentrations of the compounds were mixed with a constant concentration of LPA and responses were monitored. Each test was performed in quadruplicate. EC50, IC50, and Ki values were calculated by fitting a sigmoid function to data points with the nonlinear curve-fitting feature of KaleidaGraph (Synergy Software, Essex Junction, Vt.).
Receptor activation using Ca^2+ mobilization assay. The assay for mobilization of intracellular Ca^2+ was performed as described. Briefly, rat hepatoma RH7777 cells stably expressing human LPA1, LPA2, or LPA3, and CHO cells stably expressing LPA4, were loaded with Fura-2 AM (Molecular Probes). Using a FLEXStation (Molecular Devices, Sunnyvale, Calif.), changes in intracellular Ca^2+ concentration were monitored. Ligand-induced changes in fluorescence were monitored for 80-120 seconds. Ca^2+ transients were quantified automatically by calculating the difference between maximum and baseline ratio values for each sample. To determine antagonist properties, different concentrations of each analogue were mixed with either palmitoyl (16:0) or oleoyl (18:1) LPA (200 nM for LPA1 and LPA3, 10 nM for LPA2, and 400 nM for LPA4) (Avanti Polar Lipids, Inc., […], Ala.) and responses were recorded. Each test was performed in quadruplicate. EC50, IC50, and Ki values were calculated as described. The ligand properties of the compounds were evaluated using Ca^2+ mobilization assay for assessing the activation/inhibition of LPA1, LPA2, and LPA3 expressed in RH7777 cells and LPA4 expressed in CHO cells. Table l illustrates calcium responses elicited through the activation of human LPA1, LPA2, LPA3 and LPA4 receptors. These cell lines have been used extensively for the characterization of LPA GPCR ligands because RH7777 cells are intrinsically unresponsive to LPA and CHO cells show minimal endogenous responses to LPA unless transfected with LPA4.

recombinant ATX-HA = molecular target: T3, recombinant ATX-HA (Homo sapiens, UniProt Q13822); test: Autotaxin assay (FS-3 hydrolysis); format: biochemical; conditions: for Inhibition (%) of autotaxin (ATX) phosphodiesterase activity / inhibition at 10 µM: FS-3 substrate
T3 construct: HA
Procedure: Autotaxin Assay. This assay utilizes FS-3 (Echelon Biosciences, Inc. Salt Lake City, Utah) as substrate and recombinant ATX-HA. For analysis, 50 μl of ATX-HA (0.25 μg) in assay buffer (Tris 50 mM, NaCl 140 mM, KCl 5mM, CaCl2 1 mM, MgCl2 1 mM, pH 8.0) was mixed with 25 μl of FS-3 (1 μM final concentration in assay buffer) and 25 μl of test compound dissolved in assay buffer containing 1:1.5 bovine serum albumin in 96-well plate. FS-3 fluorescence was monitored using FLEXstation fluorescence plate reader at a time zero and after 2 hours of incubation at 37° C. at excitation and emission wavelengths of 485 nm and 538 nm, respectively. Data was normalized to the corresponding vehicle control and the mean±standard deviation of triplicate wells were expressed as percent ATX inhibition. IC50, and Ki values were calculated as described.

human LPA2 = molecular target: T4, human LPA2 (Homo sapiens, UniProt Q9HBW0); test: Ca2+ mobilization assay, LPA2; format: cell-based; conditions: for EC50: RH7777 cells stably expressing LPA2, agonist mode; for LPA2 (Emax): Emax = (maximal efficacy of compound/maximal efficacy of LPA 18:1) × 100; for LPA2 ligand type: agonist/antagonist in words
T4 construct: expressed in transfected cells
Procedure: as §1, §4, §2, §3

[1] = antagonist mode vs 200 nM LPA, PA = partial antagonist, read-out: LPA1 IC50
[2] = diastereomer study, RH7777 cells, read-out: LPA1 IC50 (Table 2)
[3] = diastereomer study, RH7777 cells, read-out: LPA1 Ki (Table 2)
[4] = 10 μM, read-out: ATX Inhibition (Table 2)
[5] = antagonist mode vs 10 nM LPA, PA = partial antagonist, read-out: LPA2 IC50
[6] = antagonist mode vs 10 nM LPA, read-out: LPA2 (Ki)
[7] = diastereomer study, RH7777 cells, read-out: LPA2 IC50 (Table 2)
[8] = diastereomer study, RH7777 cells, read-out: LPA2 Ki (Table 2)
[9] = 10.0 μM, preliminary single-dose screen

T2 sequence (Q92633 whole entry): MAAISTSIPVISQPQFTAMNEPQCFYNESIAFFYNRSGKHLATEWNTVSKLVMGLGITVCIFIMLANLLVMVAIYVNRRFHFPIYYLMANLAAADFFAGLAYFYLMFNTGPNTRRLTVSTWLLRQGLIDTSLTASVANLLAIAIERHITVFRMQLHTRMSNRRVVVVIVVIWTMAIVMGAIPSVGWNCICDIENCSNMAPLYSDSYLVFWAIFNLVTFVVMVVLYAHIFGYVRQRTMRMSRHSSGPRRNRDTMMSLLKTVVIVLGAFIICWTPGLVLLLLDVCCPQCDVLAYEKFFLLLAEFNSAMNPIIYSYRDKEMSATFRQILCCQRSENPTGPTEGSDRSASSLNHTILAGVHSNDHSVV
T1 sequence (Q99677 whole entry): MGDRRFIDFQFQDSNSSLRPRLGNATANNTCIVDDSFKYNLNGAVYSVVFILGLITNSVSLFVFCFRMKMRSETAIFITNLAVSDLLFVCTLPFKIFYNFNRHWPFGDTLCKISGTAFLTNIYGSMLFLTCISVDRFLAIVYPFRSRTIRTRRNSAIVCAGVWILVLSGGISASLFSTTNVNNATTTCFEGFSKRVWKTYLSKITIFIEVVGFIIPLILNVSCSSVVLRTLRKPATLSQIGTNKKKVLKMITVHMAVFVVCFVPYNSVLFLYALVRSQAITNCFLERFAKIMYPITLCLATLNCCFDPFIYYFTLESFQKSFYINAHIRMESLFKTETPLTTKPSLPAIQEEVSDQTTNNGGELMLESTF
T4 sequence (Q9HBW0 whole entry): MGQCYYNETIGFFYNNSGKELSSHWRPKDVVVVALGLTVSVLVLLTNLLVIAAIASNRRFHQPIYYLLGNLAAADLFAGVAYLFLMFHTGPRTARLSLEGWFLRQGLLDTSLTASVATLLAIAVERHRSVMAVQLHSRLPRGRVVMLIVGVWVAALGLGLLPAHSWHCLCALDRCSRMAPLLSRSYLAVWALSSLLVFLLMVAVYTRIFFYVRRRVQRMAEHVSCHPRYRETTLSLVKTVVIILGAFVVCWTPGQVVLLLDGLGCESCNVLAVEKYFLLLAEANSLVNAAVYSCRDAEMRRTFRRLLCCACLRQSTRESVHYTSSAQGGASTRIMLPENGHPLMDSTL

EC50 (human LPA4) [nM] | inhibition at 30 µM (human LPA4) [%] | EC50 (human LPA1) [nM] | IC50 (human LPA1; [1]) [nM] | IC50 (human LPA1; [2]) [nM] | Ki (human LPA1; [3]) [nM] | inhibition at 10 µM (recombinant ATX-HA; [4]) [%] | EC50 (human LPA2) [nM] | IC50 (human LPA2; [7]) [nM] | Ki (human LPA2; [8]) [nM] | LPA4 ligand type (human LPA4) | LPA1 (Emax) (human LPA1) | Inhibition (%) of autotaxin (ATX) phosphodiesterase activity (recombinant ATX-HA; [9]) [%] | LPA2 (Emax) (human LPA2) | SMILES | LPA4 (Emax) (human LPA4) | further results
> 30000 | 13.9 | > 30000 | 1500 ± 559 | 4520 | 805 | 102 ± 2.7 | > 30000 | 468 | 245 | – | – | – | – | CCCCCCCCCCCCCCCC(=O)OC[C@@H](O)CC(Br)P(=O)(O)O (mixture of isomers) [Compound 1, [1-Bromo-3(S)-hydroxyl-4-(palmitoyloxy)butyl]-phosphonate] | – | IC50 (human LPA4): 266 nM; Ki (human LPA4; antagonist mode vs 400 nM LPA): 167 nM; Ki (human LPA1; antagonist mode vs 200 nM LPA, read-out: LPA1 (Ki)): 751 nM; Inhibition (%) of autotaxin (ATX) phosphodiesterase activity (recombinant ATX-HA; 10.0 μM, preliminary single-dose screen, listed as 19b): 93.7 ± 2.0%; inhibition at 10 µM (recombinant ATX-HA; 10.0 μM, preliminary single-dose screen, read-out: Inhibition (%) of autotaxin (ATX) phosphodiesterase activity): > 90%; IC50 (human LPA2; [5]): 1420 ± 83 nM; Ki (human LPA2; [6]): 304 nM
> 1150 | – | > 9250 | > 30000 | – | – | – | > 2160 | – | – | weak LPA4 agonists | (39.1 ± 3.15) | 74.7 | (71.9 ± 6.0) | CCCCCCCCC=CCCCCCCCC(=O)OCC(O)CC(O)P(=O)([O-])O.[Na+] (mixture of isomers) [Compound 22a, reference compound] | (71.7 ± 2.0) | –
> 30000 | – | > 30000 | > 30000 | – | – | – | > 30000 | – | – | – | – | 54.1 | – | CCCCCCCCCCCCCCCC(=O)OCC(O)CC(O)P(=O)([O-])O.[Na+] (mixture of isomers) [Compound 22b, reference compound] | – | –
– | 35.1 | – | – | 648 | 273 | 98.1 ± 2.3 | – | 288 | 250 | Partial Antagonist | – | – | – | CCCCCCCCCCCCCCCC(=O)OC[C@@H](O)C[C@@H](Br)P(=O)(O)O [Compound 1a] | – | LPA1 ligand type (human LPA1): Antagonist; LPA2 ligand type (human LPA2): Antagonist
– | 33.1 | – | – | 2080 | 752 | 99.4 ± 2.7 | – | 275 | 241 | Partial Antagonist | – | – | – | CCCCCCCCCCCCCCCC(=O)OC[C@@H](O)C[C@H](Br)P(=O)(O)O [Compound 1b] | – | LPA1 ligand type (human LPA1): Antagonist; IC50 (recombinant ATX-HA; 0.3 to 10 μM, FS-3 hydrolysis, read-out: ATX apparent IC50): ~300 nM; LPA2 ligand type (human LPA2): Antagonist
843 ± 130 | – | 90.8 ± 20.9 | > 30000 | – | – | – | 55.1 ± 4.3 | – | – | – | (88.7 ± 3.6) | 38.1 ± 3.4 | (100.3 ± 1.9) | CCCCCCCCCCCCCCCC(=O)OCC(O)COP(=O)(O)O (stereo not shown) [LPA (16:0), reference compound] | (102.4 ± 4.1) | –

SMILES | EC50 (human LPA4) [nM] | inhibition at 30 µM (human LPA4) [%] | EC50 (human LPA1) [nM] | IC50 (human LPA1; [1]) [nM] | IC50 (human LPA1; [2]) [nM] | Ki (human LPA1; [3]) [nM] | inhibition at 10 µM (recombinant ATX-HA; [4]) [%] | EC50 (human LPA2) [nM] | IC50 (human LPA2; [7]) [nM] | Ki (human LPA2; [8]) [nM] | LPA4 ligand type (human LPA4) | LPA1 (Emax) (human LPA1) | Inhibition (%) of autotaxin (ATX) phosphodiesterase activity (recombinant ATX-HA; [9]) [%] | LPA2 (Emax) (human LPA2) | LPA4 (Emax) (human LPA4) | further results
CCCCCCCC/C=C\CCCCCCCC(=O)OCC(O)CCP(=O)(O)O (stereo not shown) [Compound 20a, reference compound] | 3900 ± 104 | – | > 2520 | > 30000 | – | – | – | > 281 | – | – | weak LPA4 agonists | (52.9 ± 11.3) | 99.8 | (94.7 ± 4.3) | (110 ± 1.3) | –
CCCCCCCCCCCCCCCC(=O)OC[C@@H](O)CCP(=O)([O-])O.[Na+] [Compound 20b, reference compound] | 5400 ± 526 | – | > 30000 | > 30000 | – | – | – | > 30000 | – | – | weak LPA4 agonists | – | 60.6 ± 4.6 | – | (29.3 ± 1.1) | IC50 (human LPA2; [5]): 2590 ± 875 nM; Ki (human LPA2; [6]): 1300 nM
